The values below come from ChEMBL document CHEMBL1201862, “PubChem BioAssay data set” (2004).

By EC50 is commonly meant the concentration giving half of the maximal effect. One may read the AC50 as the midpoint of the concentration-response curve, whichever way the signal moves.

Assay [1] concerns the target Potassium voltage-gated channel subfamily KQT member 2 (Rattus norvegicus, UniProt O88943). Description: KCNQ2 potassium channel inhibitors, dose response, cell-based, automated electrophysiology, set II, rat KCNQ2 (AID 588637). It is filed as functional.
Assay [2] deals with BJ. The assay is described as follows: cytotoxicity toward BJ-TERT-LT-ST fibroblasts, dose response, cell-based, RAS-independent, luminescence (AID 1935).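 Note: BJ fibroblasts immortalized with TERT plus LT and ST oncogenes.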 Particulars: Homo sapiens. In kind it is functional.
Assay [3] can be described thus: Luminescence Cell-Based Dose Retest to Confirm Inhibitors of Cancer Stem Cells. [Related pubchem assays (depositor defined):AID2717, AID2721]. Particulars: Homo sapiens. In kind it is functional.
In assay [4] the test system is BJ. The assay is described as follows: cytotoxicity toward Ras-transformed BJeLR fibroblasts, dose response, cell-based, alamar blue fluorescence, cherrypicked samples (AID 2631).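 Note: confirmatory dose-response assay in RAS-dependent BJ fibroblasts engineered with TERT, LT and ST, with cytotoxicity read by fluorescence.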 It is filed as functional. The settings on record: Homo sapiens. For orientation: Alamar Blue is a resazurin reagent that responds to reducing activity.
Assay [5] can be described thus: growth suppression of PTEN-null colon cells, dose response, cell-based, HCT116 PTEN knockout (AID 1047).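 Note: HCT116 colon tumor cells with PTEN knocked out; cells exposed to compound for 60 hours before readout; potency for loss of cell viability measured by luminescence.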 It is filed as functional.
Assay [6] can be described thus: Shn3 3'UTR reporter inhibitors, dose response, cell-based, Clone20 osteoblasts, firefly luciferase, cherry-picked (AID 624132).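 Note: firefly luciferase luminescence from reporter carrying the Shn3 3'UTR in osteoblasts.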 In kind it is functional.
Assay [7] in a line: cytotoxicity toward DRD oncogenic fibroblasts, dose response, cell-based, non-viral oncogenic, luminescence (AID 1934). The settings on record: Homo sapiens. It is filed as functional.
Assay [8] has as its target T1, Heat shock factor protein 1 (Mus musculus, UniProt P38532).
T1 sequence (P38532 whole entry): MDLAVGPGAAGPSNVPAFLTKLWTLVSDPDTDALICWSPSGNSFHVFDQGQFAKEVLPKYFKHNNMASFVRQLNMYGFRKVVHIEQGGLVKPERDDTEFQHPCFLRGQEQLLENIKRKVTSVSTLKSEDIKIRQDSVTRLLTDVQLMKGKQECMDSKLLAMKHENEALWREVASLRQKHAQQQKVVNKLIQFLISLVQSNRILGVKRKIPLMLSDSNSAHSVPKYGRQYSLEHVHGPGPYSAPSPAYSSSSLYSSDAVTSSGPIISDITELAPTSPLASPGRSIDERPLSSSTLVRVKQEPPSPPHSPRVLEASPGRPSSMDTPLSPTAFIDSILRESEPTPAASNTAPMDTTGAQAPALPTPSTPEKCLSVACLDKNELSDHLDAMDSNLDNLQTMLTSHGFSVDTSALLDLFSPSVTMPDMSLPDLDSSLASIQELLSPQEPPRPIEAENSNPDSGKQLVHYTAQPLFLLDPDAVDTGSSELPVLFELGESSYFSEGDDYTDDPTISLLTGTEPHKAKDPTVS
Description: inhibition of MG132-induced HSE-luciferase signal, confirmation, cell-based, NIH3T3, luminescence, dose retest (AID 2382).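 Note: NIH3T3 fibroblasts with HSF1-driven luciferase reporter stressed by proteasome inhibitor MG132; luminescence from HSF1-driven luciferase expression after 8 hours of MG132 stress.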 It is filed as functional.

Assay [9] relates to BJ. The assay is described as follows: cells. It is filed as functional, cell-based. The settings on record: Homo sapiens.
Assay [10] deals with BJ. Description: cytotoxicity toward BJ-TERT fibroblasts, dose response, cell-based, RAS-independent, luminescence (AID 1933). It is filed as functional. The settings on record: Homo sapiens.
Assay [11] addresses G-protein coupled receptor 55 (Homo sapiens, UniProt Q9Y2T6). The assay is described as follows: GPR55 agonists via beta-arrestin recruitment, primary screen, imaging, U2OS cells, beta-arrestin-GFP redistribution (AID 1961). In kind it is functional. (In general: Activated receptors often draw arrestin, which recruitment assays turn into a signal.)
Assay [12] can be described thus: growth suppression of beta-catenin-knockout colon cells, dose response, cell-based, HCT116, human colon tumor (AID 1045).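 Note: HCT116 colon tumor cells with beta catenin knocked out; cells exposed to compound for 60 hours.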 In kind it is functional.
A short description of assay [13]: control 3'UTR Renilla luciferase suppression, dose response, counter-screen for Shn3 inhibitor project, cell-based, Clone20-Shn3RL, cherry-picked (AID 624133). It is filed as functional. A general note: Counterscreens check selectivity or assay interference.
Assay [14] has as its system INS1. The assay is described as follows: beta cell apoptosis inhibitors, cytokine rescue, dose response, luminescence, retest (AID 449756).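 Note: cell death triggered by IL-1 beta plus TNF-alpha plus IFN-gamma mixture; protective hits raise ATP signal compared with cytokine alone wells.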 It is filed as functional, cell-based. Particulars: Rattus norvegicus.
Assay [15] deals with ATP-dependent molecular chaperone HSP82 (Candida albicans (strain WO-1) (Yeast), UniProt C4YTQ8). Description: loss of DOC-induced GRE-beta-galactosidase reporter signal, dose response, Hsp90 inhibitor project, S. cerevisiae, luminescence (AID 2400).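 Note: beta-galactosidase luminescence from glucocorticoid response element reporter as proxy for Hsp90 function; inhibitor potency where signal loss means Hsp90 inhibition.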 It is filed as functional, cell-based.
Assay [16] is described as follows: C. albicans growth with fluconazole, confirmation, fluorescence, retest (AID 2467). It is filed as functional, cell-based.
Assay [17] has as its target Serine/threonine-protein phosphatase (Candida dubliniensis (strain CD36 / CBS 7987 / NCPF 3949 / NRRLY-17841) (Yeast), UniProt B9W6M3). Description: calcineurin pathway inhibitors in yeast reporter, dose response, S. cerevisiae, CDRE-lacZ, luminescence, secondary (AID 2388).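 Note: yeast reporter cells carrying a calcineurin-responsive lacZ construct stimulated with calcium chloride; luminescent beta-galactosidase reporter signal in whole cells rather than isolated phosphatase activity; potency for inhibition where a drop in reporter signal means calcineurin blockade.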 It is filed as functional, cell-based.
The nature of assay [18]: NIH-3T3 fibroblast cytotoxicity, dose response, cytotoxicity control, cell-based, fluorescence, Alamar Blue, secondary assay (AID 2327).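 Note: NIH-3T3 mouse fibroblasts cultured with fluconazole at 8 µg/mL.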 In kind it is functional.
Assay [19] deals with T2, Carboxy-terminal domain RNA polymerase II polypeptide A small phosphatase 1 (Homo sapiens, UniProt Q9GZU7).
T2 sequence (Q9GZU7 whole entry): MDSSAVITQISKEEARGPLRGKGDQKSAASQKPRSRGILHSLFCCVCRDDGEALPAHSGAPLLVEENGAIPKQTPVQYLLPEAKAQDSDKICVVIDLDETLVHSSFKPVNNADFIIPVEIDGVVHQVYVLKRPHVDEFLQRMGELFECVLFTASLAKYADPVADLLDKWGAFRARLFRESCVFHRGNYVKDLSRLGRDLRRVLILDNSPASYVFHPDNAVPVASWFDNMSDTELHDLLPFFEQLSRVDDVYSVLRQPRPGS
The assay is described as follows: inhibitors of CTDSP1, concentration-response testing, biochemical assay, absorbance-based, actives from ultra-high-throughput screening (AID 540297). It is filed as functional.

Assay [20] has as its target Tyrosine-protein phosphatase non-receptor type 11 (Homo sapiens, UniProt Q06124). The assay is described as follows: SHP2 phosphatase inhibition, dose response, selectivity assay for STEP inhibitor project, biochemical (AID 602367). It is filed as functional. The settings on record: read-out: IC50_Mean.
The target of assay [21] is Tyrosine-protein phosphatase non-receptor type 5 (Homo sapiens, UniProt P54829). Description: STEP phosphatase inhibitors, confirmation, biochemical, fluorescence intensity, uHTS hits (AID 602372). In kind it is functional. The settings on record: read-out: IC50_Mean.
For assay [22], the target named is Dual specificity protein phosphatase 3 (Homo sapiens, UniProt P51452). Description: VHR phosphatase inhibition, dose response, selectivity assay for STEP inhibitor project, biochemical (AID 602374). In kind it is functional. The settings on record: read-out: IC50_Mean.
Assay [23] addresses Latent membrane protein 1 (Human herpesvirus 4 (strain B95-8), UniProt P03230). Description: TES1-eGFP NF-kB reporter inhibition versus Tet-On dsRED, dose response, selectivity assay for LMP1 NF-kB inhibitor project, imaging, HEK293T, dual-color eGFP/dsRED, cherry-picks (AID 588398). It is filed as functional, cell-based.
Assay [24] concerns HEK293. Description: inhibitors of LMP1-driven NF-kB reporter, dose response, cell-based, HEK293, luciferase, cherry-pick (AID 588343). It is filed as functional. Particulars: Homo sapiens.

Activity calls are given as the source filed them.

Sequence of Potassium voltage-gated channel subfamily KQT member 2 (O88943 whole entry): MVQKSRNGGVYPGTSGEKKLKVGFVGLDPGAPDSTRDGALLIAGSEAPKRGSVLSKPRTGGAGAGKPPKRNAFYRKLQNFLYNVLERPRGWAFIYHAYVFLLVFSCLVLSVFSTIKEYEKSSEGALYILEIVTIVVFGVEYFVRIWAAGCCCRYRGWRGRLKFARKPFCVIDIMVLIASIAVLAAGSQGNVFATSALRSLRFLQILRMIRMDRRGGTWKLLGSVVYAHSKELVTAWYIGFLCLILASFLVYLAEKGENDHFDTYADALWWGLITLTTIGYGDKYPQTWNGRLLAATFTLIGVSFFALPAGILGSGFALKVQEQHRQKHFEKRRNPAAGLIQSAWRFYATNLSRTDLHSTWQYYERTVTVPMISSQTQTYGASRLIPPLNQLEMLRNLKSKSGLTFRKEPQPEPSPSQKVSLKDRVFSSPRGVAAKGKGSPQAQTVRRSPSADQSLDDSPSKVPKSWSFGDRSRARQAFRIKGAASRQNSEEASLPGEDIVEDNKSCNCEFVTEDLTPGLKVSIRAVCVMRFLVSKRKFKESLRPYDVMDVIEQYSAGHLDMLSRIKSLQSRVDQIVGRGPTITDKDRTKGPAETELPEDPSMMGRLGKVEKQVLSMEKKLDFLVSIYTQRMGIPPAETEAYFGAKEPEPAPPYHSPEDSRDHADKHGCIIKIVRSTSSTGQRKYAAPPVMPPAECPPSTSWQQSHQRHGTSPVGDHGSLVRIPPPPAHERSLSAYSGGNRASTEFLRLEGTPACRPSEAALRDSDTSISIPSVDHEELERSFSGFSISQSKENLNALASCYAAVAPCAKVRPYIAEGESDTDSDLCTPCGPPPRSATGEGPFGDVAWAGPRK
Sequence of Serine/threonine-protein phosphatase (B9W6M3 whole entry): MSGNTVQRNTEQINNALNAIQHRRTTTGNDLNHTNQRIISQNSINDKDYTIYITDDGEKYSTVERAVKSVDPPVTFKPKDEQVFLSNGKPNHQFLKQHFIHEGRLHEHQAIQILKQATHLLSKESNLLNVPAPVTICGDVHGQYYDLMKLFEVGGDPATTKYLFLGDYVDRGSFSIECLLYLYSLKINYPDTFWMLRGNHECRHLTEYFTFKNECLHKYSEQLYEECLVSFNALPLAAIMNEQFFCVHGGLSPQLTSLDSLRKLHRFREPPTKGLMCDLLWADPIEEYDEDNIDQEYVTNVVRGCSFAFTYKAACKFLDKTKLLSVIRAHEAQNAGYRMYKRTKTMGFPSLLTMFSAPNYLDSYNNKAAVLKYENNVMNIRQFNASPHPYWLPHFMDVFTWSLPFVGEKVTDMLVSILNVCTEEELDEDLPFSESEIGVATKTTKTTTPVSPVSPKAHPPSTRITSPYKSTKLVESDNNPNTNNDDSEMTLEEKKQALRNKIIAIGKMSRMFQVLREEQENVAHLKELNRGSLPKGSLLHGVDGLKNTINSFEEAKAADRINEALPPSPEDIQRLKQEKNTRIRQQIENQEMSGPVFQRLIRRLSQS
Sequence of Dual specificity protein phosphatase 3 (P51452 whole entry): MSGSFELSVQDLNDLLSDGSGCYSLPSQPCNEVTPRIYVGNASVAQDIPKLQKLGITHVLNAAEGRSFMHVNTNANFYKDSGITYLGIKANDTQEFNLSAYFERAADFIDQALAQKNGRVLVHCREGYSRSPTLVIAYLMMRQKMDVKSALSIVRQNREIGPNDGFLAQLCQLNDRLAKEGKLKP
Sequence of G-protein coupled receptor 55 (Q9Y2T6 whole entry): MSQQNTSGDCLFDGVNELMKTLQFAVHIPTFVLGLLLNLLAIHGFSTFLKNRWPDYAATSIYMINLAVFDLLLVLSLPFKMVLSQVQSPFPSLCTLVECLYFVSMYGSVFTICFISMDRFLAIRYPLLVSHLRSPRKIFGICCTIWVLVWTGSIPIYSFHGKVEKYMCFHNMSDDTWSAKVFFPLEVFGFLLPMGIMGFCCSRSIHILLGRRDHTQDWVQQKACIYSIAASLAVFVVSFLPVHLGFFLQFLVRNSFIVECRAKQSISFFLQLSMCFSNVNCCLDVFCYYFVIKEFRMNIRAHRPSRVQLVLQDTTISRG
Sequence of Tyrosine-protein phosphatase non-receptor type 11 (Q06124 whole entry): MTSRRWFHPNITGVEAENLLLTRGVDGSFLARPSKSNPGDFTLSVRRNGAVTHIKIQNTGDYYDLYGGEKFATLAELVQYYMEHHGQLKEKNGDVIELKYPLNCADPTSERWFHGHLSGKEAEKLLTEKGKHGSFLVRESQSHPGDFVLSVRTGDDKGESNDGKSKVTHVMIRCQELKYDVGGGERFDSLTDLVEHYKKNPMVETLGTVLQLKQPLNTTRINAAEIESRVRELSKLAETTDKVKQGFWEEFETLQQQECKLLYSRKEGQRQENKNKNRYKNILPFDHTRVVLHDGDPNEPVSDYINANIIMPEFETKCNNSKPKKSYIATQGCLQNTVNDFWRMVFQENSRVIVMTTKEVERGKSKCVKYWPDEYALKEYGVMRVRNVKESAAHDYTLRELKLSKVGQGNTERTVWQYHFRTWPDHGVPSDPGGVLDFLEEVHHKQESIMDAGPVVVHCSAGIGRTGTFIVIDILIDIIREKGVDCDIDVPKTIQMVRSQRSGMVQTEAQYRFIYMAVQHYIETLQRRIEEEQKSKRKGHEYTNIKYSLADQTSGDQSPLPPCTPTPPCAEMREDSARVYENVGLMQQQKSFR
Sequence of Latent membrane protein 1 (P03230 whole entry): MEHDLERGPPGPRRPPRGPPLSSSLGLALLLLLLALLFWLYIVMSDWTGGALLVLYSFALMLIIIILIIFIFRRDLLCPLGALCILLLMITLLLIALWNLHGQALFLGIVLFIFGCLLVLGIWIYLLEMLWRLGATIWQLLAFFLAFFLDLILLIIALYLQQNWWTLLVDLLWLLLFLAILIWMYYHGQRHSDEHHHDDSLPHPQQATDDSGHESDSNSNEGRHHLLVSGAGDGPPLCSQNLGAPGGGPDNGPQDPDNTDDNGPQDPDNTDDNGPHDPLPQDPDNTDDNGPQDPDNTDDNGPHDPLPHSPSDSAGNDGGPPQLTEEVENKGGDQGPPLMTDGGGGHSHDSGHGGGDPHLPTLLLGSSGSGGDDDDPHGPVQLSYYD
Sequence of ATP-dependent molecular chaperone HSP82 (C4YTQ8 whole entry): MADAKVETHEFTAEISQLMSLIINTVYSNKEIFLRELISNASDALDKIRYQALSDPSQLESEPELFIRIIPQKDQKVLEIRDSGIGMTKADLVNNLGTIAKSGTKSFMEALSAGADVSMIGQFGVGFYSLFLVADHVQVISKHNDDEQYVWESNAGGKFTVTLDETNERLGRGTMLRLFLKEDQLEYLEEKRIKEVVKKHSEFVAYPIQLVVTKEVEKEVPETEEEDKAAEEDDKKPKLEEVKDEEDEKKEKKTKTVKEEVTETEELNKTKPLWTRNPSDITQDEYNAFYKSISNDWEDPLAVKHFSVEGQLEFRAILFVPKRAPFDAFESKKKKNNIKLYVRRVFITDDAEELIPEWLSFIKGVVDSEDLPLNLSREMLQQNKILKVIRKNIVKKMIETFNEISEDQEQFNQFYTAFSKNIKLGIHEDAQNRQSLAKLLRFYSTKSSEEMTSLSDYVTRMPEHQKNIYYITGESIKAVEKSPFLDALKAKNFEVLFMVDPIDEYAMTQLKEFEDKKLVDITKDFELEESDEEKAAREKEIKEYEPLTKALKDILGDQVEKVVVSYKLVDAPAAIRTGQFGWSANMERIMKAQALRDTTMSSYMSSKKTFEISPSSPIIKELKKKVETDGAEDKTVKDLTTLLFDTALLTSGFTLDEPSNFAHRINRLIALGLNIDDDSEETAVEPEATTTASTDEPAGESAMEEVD
Sequence of Tyrosine-protein phosphatase non-receptor type 5 (P54829 whole entry): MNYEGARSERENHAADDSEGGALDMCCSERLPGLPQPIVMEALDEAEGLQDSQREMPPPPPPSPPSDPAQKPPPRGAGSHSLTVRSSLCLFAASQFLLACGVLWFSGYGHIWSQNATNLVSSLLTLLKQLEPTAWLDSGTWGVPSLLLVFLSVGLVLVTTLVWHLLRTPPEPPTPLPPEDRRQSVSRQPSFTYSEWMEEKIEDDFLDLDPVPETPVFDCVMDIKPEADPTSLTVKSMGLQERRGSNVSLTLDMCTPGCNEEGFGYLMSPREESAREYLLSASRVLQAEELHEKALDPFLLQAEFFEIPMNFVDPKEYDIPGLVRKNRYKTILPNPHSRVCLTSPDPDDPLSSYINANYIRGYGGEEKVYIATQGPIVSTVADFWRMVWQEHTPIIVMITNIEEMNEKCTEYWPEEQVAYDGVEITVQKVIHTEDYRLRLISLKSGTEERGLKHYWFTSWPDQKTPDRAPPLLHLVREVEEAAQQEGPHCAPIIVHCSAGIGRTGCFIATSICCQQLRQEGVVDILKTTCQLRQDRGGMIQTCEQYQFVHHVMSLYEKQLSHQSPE

Regarding `Cc1csc2nc(CSc3ccc(Cl)cc3)cn12`, in [1], the IC50 is 4.2 µM (active).
Regarding `CCOC(=O)/C(=C\c1ccc([N+](=O)[O-])cc1)C(=O)c1cc(C(C)=O)c(Nc2ccccc2)s1`, the EC50 was 2.18 µM (inconclusive) in assay [2]; 1.49 µM (active) in assay [4]; 4.17 µM (active) in assay [5]; 3.32 µM (active) in assay [7]; 3.16 µM (inconclusive) in assay [8]; 3.1 µM (active) in assay [9]. For the same compound, the EC50 in assay [10] was 2.12 µM (active); in [11], > 32 µM (inactive); in assay [12], 3.81 µM (active). The AC50 in assay [3] was 0.685 µM (active); in assay [6], 2.47 µM (active); in [13], 6.21 µM (active); in assay [14], 1.94 µM (active).
On to `CCc1cc(C(=O)NN=C(S)Nc2cc(C)ccc2C)cs1`, for which the EC50 in assay [15] was > 150 µM (inactive); in assay [16], 0.382 µM (active); in assay [17] it was > 180 µM (inactive); in assay [18], > 150 µM (inactive).
`Cc1c(CC(=O)O)c(=O)oc2c(C)c(OCc3ccccc3Br)ccc12`: the IC50 in assay [19] is 3.92 µM (active); in assay [20], 7.43 µM (active); in assay [21], 13.4 µM (active); in assay [22] it was 6.67 µM (active).
Regarding `O=C(CF)N(O)c1ccc(C=Cc2ccccc2)cc1`, the half-maximal activity concentration (AC50) in [23] is 0.734 µM (active); in assay [24], 0.732 µM (active).
